Experimental data as given in paper PMC9093036, “Discovery of METTL3 Small Molecule Inhibitors by Virtual Screening of Natural Products” (Frontiers in Pharmacology, 2022).

Target: T1, METTL3 (Homo sapiens, UniProt Q86U44)
T1 construct: METTL3-METTL14 complex (wild type); with METTL14
Test: in vitro methyltransferase assay with omission of components, m6A by LC-MS/MS
Format: biochemical
Text: in vitro methyltransferase assay with omission of components, m6A by LC-MS/MS on METTL3 | METTL[…]TL14 (wild type), SAM, and RNA are essential for m^6A formation

T1 sequence (Q86U44 2-580): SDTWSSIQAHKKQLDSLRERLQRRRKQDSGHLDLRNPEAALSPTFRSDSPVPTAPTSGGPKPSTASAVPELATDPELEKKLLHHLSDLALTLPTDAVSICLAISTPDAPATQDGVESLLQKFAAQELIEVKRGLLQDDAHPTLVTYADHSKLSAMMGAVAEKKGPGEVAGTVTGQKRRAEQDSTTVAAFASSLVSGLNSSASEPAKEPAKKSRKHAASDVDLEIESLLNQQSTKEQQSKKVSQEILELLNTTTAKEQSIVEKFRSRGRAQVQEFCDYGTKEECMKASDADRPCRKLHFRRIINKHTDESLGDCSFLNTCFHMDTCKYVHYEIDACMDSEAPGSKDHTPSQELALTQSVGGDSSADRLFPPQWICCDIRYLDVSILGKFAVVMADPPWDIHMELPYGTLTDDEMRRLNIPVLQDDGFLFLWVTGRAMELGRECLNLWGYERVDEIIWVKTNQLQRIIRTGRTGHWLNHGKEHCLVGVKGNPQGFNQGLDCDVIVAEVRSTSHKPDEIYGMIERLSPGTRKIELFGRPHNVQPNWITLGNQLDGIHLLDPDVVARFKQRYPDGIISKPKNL
T1 sequence (Q9HCE5 whole entry partner): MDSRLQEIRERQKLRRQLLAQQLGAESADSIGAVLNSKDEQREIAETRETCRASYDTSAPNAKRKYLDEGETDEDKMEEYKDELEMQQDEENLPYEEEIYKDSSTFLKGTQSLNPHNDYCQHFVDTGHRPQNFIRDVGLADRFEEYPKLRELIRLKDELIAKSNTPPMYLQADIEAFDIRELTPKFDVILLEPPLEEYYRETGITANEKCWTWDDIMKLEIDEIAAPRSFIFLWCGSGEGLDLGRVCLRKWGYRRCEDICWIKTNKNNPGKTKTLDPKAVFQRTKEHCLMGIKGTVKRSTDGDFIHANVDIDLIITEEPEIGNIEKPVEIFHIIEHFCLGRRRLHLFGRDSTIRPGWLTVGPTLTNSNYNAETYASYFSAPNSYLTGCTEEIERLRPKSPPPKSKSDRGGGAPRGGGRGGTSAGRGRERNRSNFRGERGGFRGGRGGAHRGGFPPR

SMILES: C[S+](CC[C@H](N)C(=O)[O-])C[C@H]1O[C@@H](n2cnc3c(N)ncnc32)[C@H](O)[C@@H]1O (stereo partly shown) [SAM]
- components essential for m6A formation: METTL3-METTL14 (wild type), SAM, and RNA are essential for m^6A formation
